Target: T1, PatA/PatB (Streptococcus pneumoniae, UniProt Q8DN70+Q8DN72)
T1 construct: gene ABC-NP; full heterodimer co-expressed from pETDuet-1-PatA/PatB in E. coli C41(DE3), BL21(DE3), T7 express or Lemo21(DE3); His-tagged; inverted membrane vesicles, or purified in LMNG / proteoliposomes
Assay: fluorescence transport assay, inverted membrane vesicles
Type: biochemical
Settings: 1 µM Hoechst 33342, 2 mM GTP, 2 mM MgCl2, pH 8.0, 25 °C; transported drug

T1 sequence (Q8DN70 entry or part of it): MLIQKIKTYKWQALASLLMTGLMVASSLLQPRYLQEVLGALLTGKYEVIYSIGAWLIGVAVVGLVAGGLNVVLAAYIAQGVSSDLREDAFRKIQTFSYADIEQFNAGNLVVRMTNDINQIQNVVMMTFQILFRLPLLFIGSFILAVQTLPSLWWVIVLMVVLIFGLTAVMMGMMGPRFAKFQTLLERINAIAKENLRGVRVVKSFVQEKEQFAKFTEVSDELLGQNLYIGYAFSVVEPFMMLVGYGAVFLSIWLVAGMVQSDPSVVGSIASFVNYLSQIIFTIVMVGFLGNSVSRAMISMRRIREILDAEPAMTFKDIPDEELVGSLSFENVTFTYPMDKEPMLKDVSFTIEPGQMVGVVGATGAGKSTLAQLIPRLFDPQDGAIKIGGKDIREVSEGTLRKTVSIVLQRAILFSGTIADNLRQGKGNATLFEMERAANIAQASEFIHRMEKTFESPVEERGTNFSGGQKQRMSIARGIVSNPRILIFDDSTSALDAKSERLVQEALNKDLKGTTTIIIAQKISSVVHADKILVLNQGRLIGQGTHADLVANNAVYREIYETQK
T1 sequence (Q8DN72 entry or part of it): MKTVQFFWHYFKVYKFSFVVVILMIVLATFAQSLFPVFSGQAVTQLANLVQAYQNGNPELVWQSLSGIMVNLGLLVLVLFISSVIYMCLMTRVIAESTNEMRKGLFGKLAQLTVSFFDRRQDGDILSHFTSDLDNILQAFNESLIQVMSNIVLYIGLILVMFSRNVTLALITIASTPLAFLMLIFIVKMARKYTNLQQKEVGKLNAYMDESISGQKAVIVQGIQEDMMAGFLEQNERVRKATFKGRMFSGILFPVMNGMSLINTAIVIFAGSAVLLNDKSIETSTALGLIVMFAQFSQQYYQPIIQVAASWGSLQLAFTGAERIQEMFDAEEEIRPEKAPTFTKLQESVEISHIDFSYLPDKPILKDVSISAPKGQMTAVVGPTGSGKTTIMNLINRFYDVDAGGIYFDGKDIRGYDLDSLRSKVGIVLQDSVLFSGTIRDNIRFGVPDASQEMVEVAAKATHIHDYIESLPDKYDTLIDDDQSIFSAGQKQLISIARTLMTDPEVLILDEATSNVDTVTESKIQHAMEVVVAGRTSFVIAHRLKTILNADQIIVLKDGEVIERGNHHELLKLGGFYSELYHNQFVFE

CCOc1ccc(-c2nc3ccc(-c4nc5ccc(N6CCN(C)CC6)cc5[nH]4)cc3[nH]2)cc1 [Hoechst 33342, 2-(4-ethoxyphenyl)-5-(4-methyl-1-piperazinyl)-2,5-bis-1H-benzimidazole]
fluorescence transport assay, inverted membrane vesicles: a fluorescent drug translocated by PatA/PatB

— paper PMC6390180, “Functionality of membrane proteins overexpressed and purified from E. coli is highly dependent upon the strain” (Scientific Reports, 2019)
